The assay addresses T1, fibrinogen (Evicel) (Homo sapiens, UniProt P02671+P02675+P02679).
T1 construct: purchased Ethicon (Evicel Biologically Active Component 2)
T1 sequence (P02671 20-629 limits assumed): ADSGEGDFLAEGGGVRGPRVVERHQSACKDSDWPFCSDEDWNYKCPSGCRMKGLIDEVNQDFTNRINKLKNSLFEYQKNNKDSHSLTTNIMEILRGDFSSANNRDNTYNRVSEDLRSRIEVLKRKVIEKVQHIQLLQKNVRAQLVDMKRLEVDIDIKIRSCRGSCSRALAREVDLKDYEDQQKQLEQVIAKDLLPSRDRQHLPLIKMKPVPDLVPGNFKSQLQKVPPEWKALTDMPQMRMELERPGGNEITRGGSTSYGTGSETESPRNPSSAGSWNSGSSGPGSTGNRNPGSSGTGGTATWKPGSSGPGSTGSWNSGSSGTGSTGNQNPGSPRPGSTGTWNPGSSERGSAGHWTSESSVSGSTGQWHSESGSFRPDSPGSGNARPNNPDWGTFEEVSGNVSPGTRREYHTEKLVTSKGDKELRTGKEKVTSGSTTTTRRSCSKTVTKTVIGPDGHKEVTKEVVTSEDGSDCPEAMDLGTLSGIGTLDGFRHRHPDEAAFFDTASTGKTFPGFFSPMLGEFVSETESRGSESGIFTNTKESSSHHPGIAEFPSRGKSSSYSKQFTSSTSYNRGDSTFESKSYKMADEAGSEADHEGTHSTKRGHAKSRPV
T1 sequence (P02675 31-491): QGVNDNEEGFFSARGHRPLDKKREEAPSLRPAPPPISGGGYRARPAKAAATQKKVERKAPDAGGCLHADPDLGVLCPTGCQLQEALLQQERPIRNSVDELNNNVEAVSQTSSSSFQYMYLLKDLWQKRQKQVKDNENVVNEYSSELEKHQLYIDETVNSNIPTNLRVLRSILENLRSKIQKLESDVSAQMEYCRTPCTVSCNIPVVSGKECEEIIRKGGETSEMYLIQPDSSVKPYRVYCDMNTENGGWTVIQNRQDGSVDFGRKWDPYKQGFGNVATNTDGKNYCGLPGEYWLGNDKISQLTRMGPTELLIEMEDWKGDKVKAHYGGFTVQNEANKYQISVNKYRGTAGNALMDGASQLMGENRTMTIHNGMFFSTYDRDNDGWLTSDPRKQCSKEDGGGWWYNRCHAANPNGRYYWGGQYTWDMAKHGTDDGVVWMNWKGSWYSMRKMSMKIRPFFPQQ
T1 sequence (P02679 27-433 limits assumed): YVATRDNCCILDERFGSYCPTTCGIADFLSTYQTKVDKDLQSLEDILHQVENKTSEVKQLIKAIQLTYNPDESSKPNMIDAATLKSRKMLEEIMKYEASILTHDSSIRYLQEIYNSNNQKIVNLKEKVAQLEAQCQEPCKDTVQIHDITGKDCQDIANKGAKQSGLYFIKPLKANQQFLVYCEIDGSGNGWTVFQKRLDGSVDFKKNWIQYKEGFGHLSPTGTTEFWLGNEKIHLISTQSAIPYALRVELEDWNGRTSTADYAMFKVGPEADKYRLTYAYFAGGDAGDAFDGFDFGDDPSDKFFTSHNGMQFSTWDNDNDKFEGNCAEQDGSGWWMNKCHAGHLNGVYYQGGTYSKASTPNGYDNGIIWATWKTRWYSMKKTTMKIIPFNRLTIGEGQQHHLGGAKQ
Nature of the assay: Fibrinogen clotting assay with coagulation analyzer (Clauss method), tissue glue fibrinogen. The following applies: for Effect on Clotting Time: screen, multiple concentrations up to 4.58 mM; for gelation time (average clotting time): 4.58 mM additive in PBS, fixed 1:20 dilution of fibrinogen (Evicel), n=10. Type of assay: biochemical.

Turning to `Nc1c(/N=N/c2ccc(-c3ccc(/N=N/c4cc(S(=O)(=O)O)c5ccccc5c4N)cc3)cc2)cc(S(=O)(=O)O)c2ccccc12` [CR, Congo Red, reference compound], the “Effect on Clotting Time” value was “caused protein precipitation”. Moreover, the “Effect on Clotting Time” value (listed as Congo Red (CR)) is “Precip”.
`CC1(C)C(/C=C/C=C/C=C/C=C2\N(CCCCS(=O)(=O)O)c3ccc4ccccc4c3C2(C)C)=[N+](CCCCS(=O)(=O)[O-])c2ccc3ccccc3c21` [ICG, Indocyanine Green, reference compound]: the “Effect on Clotting Time” value is recorded as “caused protein precipitation”. Moreover, the “Effect on Clotting Time” value (listed as Indocyanine Green (ICG)) is “Precip”.
Regarding “Brilliant Blue R [BB, reference compound]”, the “Effect on Clotting Time” value is “caused protein precipitation”. Besides, where the note is “listed as Brilliant Blue R (BB)”, the “Effect on Clotting Time” value was “Precip”.
Turning to `Cc1cc(N=Nc2ccc(C)c(N=Nc3cc(C)c(N)cc3N)c2)c(N)cc1N.Cl.Cl` [BBr, Bismarck Brown R, reference compound], the “gelation time (average clotting time)” value stood at 18.9 ± 3.3 s and the “Effect on Clotting Time” value was “No effect”.
For `O=C([O-])c1ccccc1-c1c2ccc(=O)cc-2oc2cc([O-])ccc12.[Na+].[Na+]` [SF, Sodium Fluorescein, reference compound] the same measures were 18.5 ± 2.6 s and “No effect”.
Consider Alcian Blue [AB, reference compound], for which the “Effect on Clotting Time” value is reported as “caused protein precipitation”. Moreover, the “Effect on Clotting Time” value (listed as Alcian Blue (AB)) was “Precip”.
